Like-named read-outs stand apart in the source and are kept apart here.
Assays:
Vaccinia Lister [1] = format: cell-based, Vaccinia-Virus; settings: HEZ; for % Hemmung / Senkung des Virusertrages im Vergleich zur unbehandelten Kontrolle: Beispielreihe 2, Vaccinia Lister, mean of three experiments
Coxsackie A 9-Virus = assay: Antiviral test in vitro; format: cell-based
[2] = test system: Vesicular-stomatitis Indiana; assay: One-step replication cycle on chick embryo cells; format: cell-based; settings: Beispielreihe 2, HEZ
Influenza A/WSN = assay: One-step replication cycle on chick embryo cells; format: cell-based, Influenza-Virus; settings: HEZ; for % Hemmung / Senkung des Virusertrages im Vergleich zur unbehandelten Kontrolle: Beispielreihe 2, Influenza A/WSN, mean of three experiments
Adeno-Virus Typ 4 = assay: Antiviral test in vitro; format: cell-based
Vaccinia Lister [3] = assay: Plaque reduction test on primary HEZ; settings: mean of two experiments
[4] = test system: Herpes simplex Typ 1 Kupka; assay: One-step replication cycle on permanent human kidney cell line
Vaccinia Lister [5] = assay: as above; settings: mean of two experiments
[6] = 250 µmol/l, mean of three experiments
[7] = Beispielreihe 3, Herpes simplex Typ 1 Kupka, 125 µmol/l, mean of two experiments
[8] = Beispielreihe 3, Herpes simplex Typ 1 Kupka, 250 µmol/l, mean of two experiments

O=c1[nH]c2ccccc2c(=O)n1CCS [Beispiel 1, 3-(2-Mercaptoethyl)-chinazolin-2,4(1H,3H)-dion]
% Hemmung (Vaccinia Lister [1]; 125 µmol/l): 99,99%
Senkung des Virusertrages im Vergleich zur unbehandelten Kontrolle (Vaccinia Lister [1]; 125 µmol/l): 4,0 log10 TCID50/0,2 ml
% Hemmung (Vaccinia Lister [1]; 250 µmol/l): > 99,99%
Senkung des Virusertrages im Vergleich zur unbehandelten Kontrolle (Vaccinia Lister [1]; 250 µmol/l): 5,67 log10 TCID50/0,2 ml
Senkung des Virusertrages im Vergleich zur unbehandelten Kontrolle (Vaccinia Lister [1]; 31,25 µmol/l): 1,0 log10 TCID50/0,2 ml
% Hemmung (Vaccinia Lister [1]; 31,25 µmol/l, 31.25 µM): 99,0%
Senkung des Virusertrages im Vergleich zur unbehandelten Kontrolle (Vaccinia Lister [1]; 62,5 µmol/l): 2,5 log10 TCID50/0,2 ml
% Hemmung (Vaccinia Lister [1]; 62,5 µmol/l, 62.5 µM): 99,68%
Therapeutischer Index = Verhältnis von maximal verträglicher und minimal wirksamer Dosis (Vaccinia Lister [1]; für Vaccinia-Virus): 8
antivirale Wirkung (Coxsackie A 9-Virus): nicht antiviral wirksam
Senkung des Virusertrages im Vergleich zur unbehandelten Kontrolle ([2]; 125 µmol/l, mean of three experiments): 0,5 log10 TCID50/0,2 ml
% Hemmung ([2]; 125 µmol/l, n.s. = nicht signifikant): n. s.
% Hemmung [2, 6]: 99,9%
Senkung des Virusertrages im Vergleich zur unbehandelten Kontrolle [2, 6]: 3,0 log10 TCID50/0,2 ml
% Hemmung (Influenza A/WSN; 125 µmol/l): > 99,99%
Senkung des Virusertrages im Vergleich zur unbehandelten Kontrolle (Influenza A/WSN; 125 µmol/l): 4,67 log10 TCID50/0,2 ml
% Hemmung (Influenza A/WSN; 250 µmol/l): > 99,99%
Senkung des Virusertrages im Vergleich zur unbehandelten Kontrolle (Influenza A/WSN; 250 µmol/l): 6,23 log10 TCID50/0,2 ml
Senkung des Virusertrages im Vergleich zur unbehandelten Kontrolle (Influenza A/WSN; 31,25 µmol/l): 2,5 log10 TCID50/0,2 ml
% Hemmung (Influenza A/WSN; 31,25 µmol/l, 31.25 µM): 99,50%
Senkung des Virusertrages im Vergleich zur unbehandelten Kontrolle (Influenza A/WSN; 62,5 µmol/l): 4,25 log10 TCID50/0,2 ml
% Hemmung (Influenza A/WSN; 62,5 µmol/l, 62.5 µM): > 99,99%
Therapeutischer Index = Verhältnis von maximal verträglicher und minimal wirksamer Dosis (Influenza A/WSN; für Influenza-Virus): 8
antivirale Wirkung (Adeno-Virus Typ 4): nicht antiviral wirksam
Plaquereduktion in % zur Viruskontrolle auf primären HEZ (Vaccinia Lister [3]; 125 µmol/l): 96%
Plaquereduktion in % zur Viruskontrolle auf primären HEZ (Vaccinia Lister [3]; 250 µmol/l): 100%
Plaquereduktion in % zur Viruskontrolle auf primären HEZ (Vaccinia Lister [3]; 31,25 µmol/l, 31.25 µM): 87%
Plaquereduktion in % zur Viruskontrolle auf primären HEZ (Vaccinia Lister [3]; 62,5 µmol/l, 62.5 µM): 92%
% Hemmung [4, 7]: > 99,99%
Senkung des Virusertrages im Vergleich zur unbehandelten Kontrolle [4, 7]: 5,5 log10 TCID50/0,2 ml
% Hemmung [4, 8]: > 99,99%
Senkung des Virusertrages im Vergleich zur unbehandelten Kontrolle [4, 8]: 6,0 log10 TCID50/0,2 ml
Senkung des Virusertrages im Vergleich zur unbehandelten Kontrolle ([4]; Beispielreihe 3, Herpes simplex Typ 1 Kupka, 62,5 µmol/l, mean of two experiments): 0,75 log10 TCID50/0,2 ml
% Hemmung ([4]; Beispielreihe 3, Herpes simplex Typ 1 Kupka, 62,5 µmol/l, n. s. = nicht signifikant): n. s.
% Hemmung (Vaccinia Lister [5]; Beispielreihe 3, 125 µmol/l): > 99,99%
Senkung des Virusertrages im Vergleich zur unbehandelten Kontrolle (Vaccinia Lister [5]; Beispielreihe 3, 125 µmol/l): > 4,0 log10 TCID50/0,2 ml
% Hemmung (Vaccinia Lister [5]; Beispielreihe 3, 250 µmol/l): > 99,99%
Senkung des Virusertrages im Vergleich zur unbehandelten Kontrolle (Vaccinia Lister [5]; Beispielreihe 3, 250 µmol/l): > 4,0 log10 TCID50/0,2 ml
Senkung des Virusertrages im Vergleich zur unbehandelten Kontrolle (Vaccinia Lister [5]; Beispielreihe 3, 31,25 µmol/l): 3,5 log10 TCID50/0,2 ml
% Hemmung (Vaccinia Lister [5]; Beispielreihe 3, 31,25 µmol/l, 31.25 µM): > 99,9%
Senkung des Virusertrages im Vergleich zur unbehandelten Kontrolle (Vaccinia Lister [5]; Beispielreihe 3, 62,5 µmol/l): 4,0 log10 TCID50/0,2 ml
% Hemmung (Vaccinia Lister [5]; Beispielreihe 3, 62,5 µmol/l, 62.5 µM): 99,99%

Reference: patent EP0454060B1, “3-(Mercaptoalkyl)-quinazoline-2,4(1H,3H)-diones, processes for their preparation, and pharmaceutical compositions” (priority 1990, dated 1991)
